Measurements from patent US20020137929A1, “1 - (3-heterocyclylphenyl) isothiourea, -isourea, -guanidine and -amidine herbicidal agents” (Intellectual Property Department, BASF Aktiengesellschaft, priority 1998, published 2002).

Legend:
[1] = system: CASOB (Sicklepod); test: Postemergence herbicidal evaluation; assay type: in vivo, Cassia obtusifolia; settings: postemergence
Summary of the method: (§1)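 First, seedlings were raised for around two weeks. Next, test material in 50/50 acetone/water containing 0.5% TWEEN 20 was sprayed through a nozzle at 40 psi, equivalent to about 0.0156–0.500 kg/ha. Finally, after 4–5 weeks in the greenhouse, plants were rated 0–9.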

[2] = system: GALAP (Galium); test: Postemergence herbicidal evaluation; assay type: in vivo, Galium aparine; settings: postemergence
Summary of the method: as §1

[3] = system: ZEAMX (Corn, Field); test: Postemergence herbicidal evaluation; assay type: in vivo, Zea mays; settings: postemergence
Summary of the method: as §1

[4] = system: AMBEL (Ragweed, Common); test: Preemergence herbicidal evaluation; assay type: in vivo, Ambrosia artemisifolia; settings: rated 4-5 weeks after treatment
Summary of the method: (§2)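 Steps: mix seeds into potting soil; plant atop ~1 inch soil; spray compound in aqueous acetone (~0.0156-0.500 kg/ha equivalent); maintain in greenhouse with watering; rate visually 0-9 versus control at 4-5 weeks.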

[5] = system: CHEAL (Lambsquarters, Common); test: Preemergence herbicidal evaluation; assay type: in vivo, Chenopodium album; settings: rated 4-5 weeks after treatment
Summary of the method: as §2

[6] = system: IPOHE (Morningglory, Ivyleaf); test: Preemergence herbicidal evaluation; assay type: in vivo, Ipomoea hederacea; settings: rated 4-5 weeks after treatment
Summary of the method: as §2

[7] = system: ORYSAT (Rice, Tebonnet); test: Preemergence herbicidal evaluation; assay type: in vivo, Oryza sativa, (L.) Tebonnet; settings: rated 4-5 weeks after treatment
Summary of the method: as §2

[8] = system: TRZAWR (Wheat, Winter, cv Riband); test: Preemergence herbicidal evaluation; assay type: in vivo, Triticum aestivum; settings: rated 4-5 weeks after treatment
Summary of the method: as §2

[9] = system: ZEAMX (Corn, Field); test: Preemergence herbicidal evaluation; assay type: in vivo, Zea mays; settings: rated 4-5 weeks after treatment
Summary of the method: as §2

[10] = system: ECHORC (Watergrass (Calif.)); test: Preemergence weed control under flooded paddy conditions; assay type: in vivo, Echinochloa oryzoides; settings: rated 3-4 weeks after treatment
Summary of the method: (§3)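 Ratings on a 0-9 visual scale cover stand, vigor, malformation, size, chlorosis and overall appearance relative to a control, taken three to four weeks post-treatment. Application was into flood water over freshly sown silt loam at roughly 0.0313 to 0.500 kg/ha.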

[11] = system: CYPIR (Rice Flatsedge); test: as above; assay type: in vivo, Cyperus iria; settings: rated 3-4 weeks after treatment
Summary of the method: as §3

[12] = system: CYPSE (Flatsedge); test: as above; assay type: in vivo, Cyperus serotinus; settings: rated 3-4 weeks after treatment
Summary of the method: as §3

CCOC(=O)CN1C(=O)C(OC)SC1=Nc1cc(-n2c(=O)cc(C(F)(F)F)n(C)c2=O)c(F)cc1Cl (stereo not drawn) [Compound 160, Ethyl 2-{{2-chloro-5-[3,6-dihydro-3-methyl-2,6-dioxo-4-(trifluoromethyl)-1(2H)-pyrimidinyl]-4-fluorophenyl}imino}-5-methoxy-4-oxo-3-thiazolidineacetate]
Herbicidal rating CASOB ([1]; rate 0.0156 kg/ha): 0.0
Herbicidal rating CASOB ([1]; rate 0.0313 kg/ha): 0.0
Herbicidal rating CASOB ([1]; rate 0.0625 kg/ha): 1.0
Herbicidal rating CASOB ([1]; rate 0.1250 kg/ha): 4.0
Herbicidal rating GALAP ([2]; rate 0.0156 kg/ha): 0.0
Herbicidal rating GALAP ([2]; rate 0.0313 kg/ha): 0.0
Herbicidal rating GALAP ([2]; rate 0.0625 kg/ha): 2.0
Herbicidal rating GALAP ([2]; rate 0.1250 kg/ha): 4.0
Herbicidal rating ZEAMX ([3]; rate 0.0156 kg/ha): 6.5
Herbicidal rating ZEAMX ([3]; rate 0.0313 kg/ha): 7.0
Herbicidal rating ZEAMX ([3]; rate 0.0625 kg/ha): 7.0
Herbicidal rating ZEAMX ([3]; rate 0.1250 kg/ha): 7.5
Preemergence herbicidal rating AMBEL ([4]; 0.0156 kg/ha): 7.0
Preemergence herbicidal rating AMBEL ([4]; 0.0313 kg/ha): 6.0
Preemergence herbicidal rating AMBEL ([4]; 0.0625 kg/ha): 9.0
Preemergence herbicidal rating AMBEL ([4]; 0.1250 kg/ha): 9.0
Preemergence herbicidal rating AMBEL ([4]; 0.2500 kg/ha): 9.0
Preemergence herbicidal rating AMBEL ([4]; 0.5000 kg/ha): 9.0
Preemergence herbicidal rating CHEAL ([5]; 0.0156 kg/ha): 2.0
Preemergence herbicidal rating CHEAL ([5]; 0.0313 kg/ha): 9.0
Preemergence herbicidal rating CHEAL ([5]; 0.0625 kg/ha): 9.0
Preemergence herbicidal rating CHEAL ([5]; 0.1250 kg/ha): 9.0
Preemergence herbicidal rating CHEAL ([5]; 0.2500 kg/ha): 9.0
Preemergence herbicidal rating CHEAL ([5]; 0.5000 kg/ha): 9.0
Preemergence herbicidal rating IPOHE ([6]; 0.0156 kg/ha): 3.0
Preemergence herbicidal rating IPOHE ([6]; 0.0313 kg/ha): 6.0
Preemergence herbicidal rating IPOHE ([6]; 0.0625 kg/ha): 9.0
Preemergence herbicidal rating IPOHE ([6]; 0.1250 kg/ha): 9.0
Preemergence herbicidal rating IPOHE ([6]; 0.2500 kg/ha): 8.0
Preemergence herbicidal rating IPOHE ([6]; 0.5000 kg/ha): 9.0
Preemergence herbicidal rating ORYSAT ([7]; 0.0156 kg/ha): 0.0
Preemergence herbicidal rating ORYSAT ([7]; 0.0313 kg/ha): 0.0
Preemergence herbicidal rating ORYSAT ([7]; 0.0625 kg/ha): 1.0
Preemergence herbicidal rating ORYSAT ([7]; 0.1250 kg/ha): 1.0
Preemergence herbicidal rating ORYSAT ([7]; 0.2500 kg/ha): 7.0
Preemergence herbicidal rating ORYSAT ([7]; 0.5000 kg/ha): 8.0
Preemergence herbicidal rating TRZAWR ([8]; 0.0156 kg/ha): 0.0
Preemergence herbicidal rating TRZAWR ([8]; 0.0313 kg/ha): 0.0
Preemergence herbicidal rating TRZAWR ([8]; 0.0625 kg/ha): 1.0
Preemergence herbicidal rating TRZAWR ([8]; 0.1250 kg/ha): 1.0
Preemergence herbicidal rating TRZAWR ([8]; 0.2500 kg/ha): 4.0
Preemergence herbicidal rating TRZAWR ([8]; 0.5000 kg/ha): 7.0
Preemergence herbicidal rating ZEAMX ([9]; 0.0156 kg/ha): 0.0
Preemergence herbicidal rating ZEAMX ([9]; 0.0313 kg/ha): 0.0
Preemergence herbicidal rating ZEAMX ([9]; 0.0625 kg/ha): 1.0
Preemergence herbicidal rating ZEAMX ([9]; 0.1250 kg/ha): 2.0
Preemergence herbicidal rating ZEAMX ([9]; 0.2500 kg/ha): 5.0
Preemergence herbicidal rating ZEAMX ([9]; 0.5000 kg/ha): 8.0
herbicidal effect rating, ECHORC ([10]; 0.0313 kg/ha): 0.0
herbicidal effect rating, ECHORC ([10]; 0.0625 kg/ha): 0.0
herbicidal effect rating, ECHORC ([10]; 0.1250 kg/ha): 2.0
herbicidal effect rating, ECHORC ([10]; 0.2500 kg/ha): 4.0
herbicidal effect rating, CYPIR ([11]; 0.0313 kg/ha): 0.0
herbicidal effect rating, CYPIR ([11]; 0.0625 kg/ha): 3.0
herbicidal effect rating, CYPIR ([11]; 0.1250 kg/ha): 6.0
herbicidal effect rating, CYPIR ([11]; 0.2500 kg/ha): 9.0
herbicidal effect rating, CYPSE ([12]; 0.0313 kg/ha): 3.0
herbicidal effect rating, CYPSE ([12]; 0.0625 kg/ha): 3.0
herbicidal effect rating, CYPSE ([12]; 0.1250 kg/ha): 3.0
herbicidal effect rating, CYPSE ([12]; 0.2500 kg/ha): 3.0

CCOC(=O)CN1C(=O)C(C(=O)OC(C)(C)C)SC1=Nc1cc(-n2c(=O)cc(C(F)(F)F)n(C)c2=O)c(F)cc1Cl (stereo not drawn) [Compound 167, 5-Carboxy-2-{{2-chloro-5-[3,6-dihydro-3-methyl-2,6-dioxo-4-(trifluoromethyl)-1(2H)-pyrimidinyl]-4-fluorophenyl}imino}-4-oxo-3-thiazolidineacetic acid, 5-tert-butyl ethyl ester]
Herbicidal rating CASOB ([1]; rate 0.0156 kg/ha): 1.0
Herbicidal rating CASOB ([1]; rate 0.0313 kg/ha): 2.0
Herbicidal rating CASOB ([1]; rate 0.0625 kg/ha): 1.0
Herbicidal rating CASOB ([1]; rate 0.1250 kg/ha): 4.0
Herbicidal rating GALAP ([2]; rate 0.0156 kg/ha): 2.0
Herbicidal rating GALAP ([2]; rate 0.0313 kg/ha): 3.0
Herbicidal rating GALAP ([2]; rate 0.0625 kg/ha): 4.0
Herbicidal rating GALAP ([2]; rate 0.1250 kg/ha): 4.0
Herbicidal rating ZEAMX ([3]; rate 0.0156 kg/ha): 4.5
Herbicidal rating ZEAMX ([3]; rate 0.0313 kg/ha): 5.5
Herbicidal rating ZEAMX ([3]; rate 0.0625 kg/ha): 5.5
Herbicidal rating ZEAMX ([3]; rate 0.1250 kg/ha): 5.5
Preemergence herbicidal rating AMBEL ([4]; 0.0156 kg/ha): 1.0
Preemergence herbicidal rating AMBEL ([4]; 0.0313 kg/ha): 0.0
Preemergence herbicidal rating AMBEL ([4]; 0.0625 kg/ha): 7.0
Preemergence herbicidal rating AMBEL ([4]; 0.1250 kg/ha): 6.0
Preemergence herbicidal rating AMBEL ([4]; 0.2500 kg/ha): 7.0
Preemergence herbicidal rating AMBEL ([4]; 0.5000 kg/ha): 8.0
Preemergence herbicidal rating CHEAL ([5]; 0.0156 kg/ha): 7.0
Preemergence herbicidal rating CHEAL ([5]; 0.0313 kg/ha): 7.0
Preemergence herbicidal rating CHEAL ([5]; 0.0625 kg/ha): 9.0
Preemergence herbicidal rating CHEAL ([5]; 0.1250 kg/ha): 9.0
Preemergence herbicidal rating CHEAL ([5]; 0.2500 kg/ha): 9.0
Preemergence herbicidal rating CHEAL ([5]; 0.5000 kg/ha): 9.0
Preemergence herbicidal rating IPOHE ([6]; 0.0156 kg/ha): 0.0
Preemergence herbicidal rating IPOHE ([6]; 0.0313 kg/ha): 0.0
Preemergence herbicidal rating IPOHE ([6]; 0.0625 kg/ha): 2.0
Preemergence herbicidal rating IPOHE ([6]; 0.1250 kg/ha): 3.0
Preemergence herbicidal rating IPOHE ([6]; 0.2500 kg/ha): 9.0
Preemergence herbicidal rating IPOHE ([6]; 0.5000 kg/ha): 9.0
Preemergence herbicidal rating ORYSAT ([7]; 0.0156 kg/ha): 0.0
Preemergence herbicidal rating ORYSAT ([7]; 0.0313 kg/ha): 0.0
Preemergence herbicidal rating ORYSAT ([7]; 0.0625 kg/ha): 1.0
Preemergence herbicidal rating ORYSAT ([7]; 0.1250 kg/ha): 4.0
Preemergence herbicidal rating ORYSAT ([7]; 0.2500 kg/ha): 5.0
Preemergence herbicidal rating ORYSAT ([7]; 0.5000 kg/ha): 6.0
Preemergence herbicidal rating TRZAWR ([8]; 0.0156 kg/ha): 0.0
Preemergence herbicidal rating TRZAWR ([8]; 0.0313 kg/ha): 0.0
Preemergence herbicidal rating TRZAWR ([8]; 0.0625 kg/ha): 1.0
Preemergence herbicidal rating TRZAWR ([8]; 0.1250 kg/ha): 3.0
Preemergence herbicidal rating TRZAWR ([8]; 0.2500 kg/ha): 4.0
Preemergence herbicidal rating TRZAWR ([8]; 0.5000 kg/ha): 5.0
Preemergence herbicidal rating ZEAMX ([9]; 0.0156 kg/ha): 0.0
Preemergence herbicidal rating ZEAMX ([9]; 0.0313 kg/ha): 0.0
Preemergence herbicidal rating ZEAMX ([9]; 0.0625 kg/ha): 3.0
Preemergence herbicidal rating ZEAMX ([9]; 0.1250 kg/ha): 3.0
Preemergence herbicidal rating ZEAMX ([9]; 0.2500 kg/ha): 6.0
Preemergence herbicidal rating ZEAMX ([9]; 0.5000 kg/ha): 7.0
herbicidal effect rating, ECHORC ([10]; 0.0313 kg/ha): 9.0
herbicidal effect rating, ECHORC ([10]; 0.0625 kg/ha): 9.0
herbicidal effect rating, ECHORC ([10]; 0.1250 kg/ha): 9.0
herbicidal effect rating, ECHORC ([10]; 0.2500 kg/ha): 9.0
herbicidal effect rating, CYPIR ([11]; 0.0313 kg/ha): 7.0
herbicidal effect rating, CYPIR ([11]; 0.0625 kg/ha): 9.0
herbicidal effect rating, CYPIR ([11]; 0.1250 kg/ha): 9.0
herbicidal effect rating, CYPIR ([11]; 0.2500 kg/ha): 9.0
herbicidal effect rating, CYPSE ([12]; 0.0313 kg/ha): 0.0
herbicidal effect rating, CYPSE ([12]; 0.0625 kg/ha): 0.0
herbicidal effect rating, CYPSE ([12]; 0.1250 kg/ha): 3.0
herbicidal effect rating, CYPSE ([12]; 0.2500 kg/ha): 5.0
